The target in one assay is BTK (Homo sapiens (Human), UniProt Q06187). Nature of the assay: In vitro BTK kinase assay: Btk-PolyGAT-LS assay. The format is biochemical. Conditions: ATP 10 μM, polyGAT 100 nM, BTK 0.25 nM, 30 minutes.
Assay [1] deals with CD69 expression on CD19+ B cells in human whole blood. Nature of the assay: In vitro whole blood CD69 assay. The format is cell-based. Conditions: B-cell.
Where [2] appears, read: Whole Blood CD69 inhibition, human heparinized blood, anti-human IgD stimulation, CD19+ B cells expressing CD69, read-out: IC50.

Like-named read-outs stand apart in the source and are kept apart here. Bounds are passed on as bounds.

BTK, sequence (Q06187 whole entry): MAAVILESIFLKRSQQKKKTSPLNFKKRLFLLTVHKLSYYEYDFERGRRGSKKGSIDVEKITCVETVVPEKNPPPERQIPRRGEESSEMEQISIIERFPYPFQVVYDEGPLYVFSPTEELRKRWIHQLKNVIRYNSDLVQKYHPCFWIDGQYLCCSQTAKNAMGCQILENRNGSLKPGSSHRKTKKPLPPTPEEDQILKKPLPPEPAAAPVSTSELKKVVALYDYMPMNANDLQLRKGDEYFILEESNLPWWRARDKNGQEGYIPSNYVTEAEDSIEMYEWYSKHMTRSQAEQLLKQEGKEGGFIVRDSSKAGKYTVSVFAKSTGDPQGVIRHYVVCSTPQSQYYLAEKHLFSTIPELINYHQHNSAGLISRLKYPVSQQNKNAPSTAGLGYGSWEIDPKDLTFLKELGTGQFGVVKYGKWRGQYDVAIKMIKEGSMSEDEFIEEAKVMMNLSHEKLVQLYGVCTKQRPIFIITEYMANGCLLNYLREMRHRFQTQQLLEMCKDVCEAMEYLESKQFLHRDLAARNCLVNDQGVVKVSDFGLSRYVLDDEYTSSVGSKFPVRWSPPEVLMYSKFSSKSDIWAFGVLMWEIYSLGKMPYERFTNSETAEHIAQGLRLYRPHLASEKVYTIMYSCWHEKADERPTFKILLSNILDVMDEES

As a reminder, the IC50 is the midpoint of a concentration-inhibition curve. On to `Cc1cc(-c2ccncc2OC2CCN(C(=O)/C=C/CN(C)C)CC2)ccc1CNC(=O)c1cn(C(C)(C)C)nn1` [Example 42, (E)-1-(tert-butyl)-N-(4-(3-((1-(4-(dimethylamino)but-2-enoyl)piperidin-4-yl)oxy)pyridin-4-yl)-2-methylbenzyl)-1H-1,2,3-triazole-4-carboxamide], for which the IC50 is below 1 nM against BTK and 100 to 1000 nM in assay [1] (setting [2]).
As for `C=CC(=O)N(C)CCOc1cnccc1-c1ccc(CNC(=O)c2noc(C(C)(C)C)n2)c(C)c1F` [Example 5, 5-(tert-butyl)-N-(3-fluoro-2-methyl-4-(3-(2-(N-methylacrylamido)ethoxy)pyridin-4-yl)benzyl)-1,2,4-oxadiazole-3-carboxamide], the IC50 against BTK was below 1 nM; in assay [1] (setting [2]), below 100 nM.
With `C#CC(=O)N1CCC(Oc2cnccc2-c2ccc(CNC(=O)c3cn(C(C)(C)C)nn3)c(C)c2)C1` (stereo not shown) [Example 43, 1-(tert-butyl)-N-(2-methyl-4-(3-((1-propioloylpyrrolidin-3-yl)oxy)pyridin-4-yl)benzyl)-1H-1,2,3-triazole-4-carboxamide], the IC50 at BTK was 1 to 10 nM; in assay [1] (setting [2]) it was above 1000 nM.
Consider `C=CC(=O)N1CC[C@H](Oc2cnccc2-c2ccc(CNC(=O)c3cn(C(C)(C)C)nn3)c(C)c2)C1` (single isomer, unassigned) [Example 36], for which the concentration for half-maximal inhibition (IC50) against BTK was 1 to 10 nM; in assay [1] (setting [2]), above 1000 nM.
With `C=CC(=O)N(C)CCOc1c(N)ncnc1-c1ccc(CNC(=O)c2nnc(C(C)(C)C)o2)c(C)c1` [Example 1, N-(4-(6-amino-5-(2-(N-methylacrylamido)ethoxy)pyrimidin-4-yl)-2-methylbenzyl)-5-(tert-butyl)-1,3,4-oxadiazole-2-carboxamide], the IC50 on BTK was below 1 nM; in assay [1] (Homo sapiens), below 100 nM.
With `C=CC(=O)N(C)CCOc1c(N)ncnc1-c1ccc(CN2CCc3c(cnn3C(C)(C)C)C2=O)c(C)c1` [Example 6, N-(2-((4-amino-6-(4-((1-(tert-butyl)-4-oxo-1,4,6,7-tetrahydro-5H-pyrazolo[4,3-c]pyridin-5-yl)methyl)-3-methylphenyl)pyrimidin-5-yl)oxy)ethyl)-N-methylacrylamide], the IC50 is below 1 nM on BTK and below 100 nM in assay [1] (setting [2]).
For `C=CC(=O)N1CCC(Oc2cnccc2-c2ccc(CNC(=O)c3cn(C(C)(C)C)nn3)c(C)c2)CC1` [Example 37, N-(4-(3-((1-acryloylpiperidin-4-yl)oxy)pyridin-4-yl)-2-methylbenzyl)-1-(tert-butyl)-1H-1,2,3-triazole-4-carboxamide], the IC50 against BTK was below 1 nM; in assay [1] (setting [2]), above 1000 nM.
On to `C=CC(=O)N1CCCC[C@@H]1C(=O)Nc1cnccc1-c1ccc(CNC(=O)c2noc(C(C)(C)C)n2)c(C)c1` [Example 31, (R)-N-(4-(3-(1-acryloylpiperidine-2-carboxamido)pyridin-4-yl)-2-methylbenzyl)-5-(tert-butyl)-1,2,4-oxadiazole-3-carboxamide], for which the IC50 on BTK was below 1 nM; in assay [1] (setting [2]), below 100 nM.
Regarding `C=CC(=O)N(C)CCOc1cncnc1-c1ccc(CNC(=O)c2noc(C(C)(C)C)n2)c(C)c1` [Example 3, 5-(tert-butyl)-N-(2-methyl-4-(5-(2-(N-methylacrylamido)ethoxy)-pyrimidin-4-yl)benzyl)-1,2,4-oxadiazole-3-carboxamide], the figures for the IC50 (against BTK; in assay [1] (setting [2])) were below 1 nM and below 100 nM, respectively.
For `C=CC(=O)N1CCCC(Oc2cnccc2-c2ccc(CNC(=O)c3cn(C(C)(C)C)nn3)c(C)c2)C1` (stereo not shown) [Example 38, N-(4-(3-((1-acryloylpiperidin-3-yl)oxy)pyridin-4-yl)-2-methylbenzyl)-1-(tert-butyl)-1H-1,2,3-triazole-4-carboxamide], the results for the IC50 (against BTK; in assay [1] (setting [2])) were above 10 nM and above 1000 nM, respectively.
As to `C=CC(=O)N(C)CCOc1c(N)ncnc1-c1ccc(CN2CCN(CC(C)(C)C)CC2=O)c(C)c1` [Example 9, N-(2-((4-amino-6-(3-methyl-4-((4-neopentyl-2-oxopiperazin-1-yl)methyl)phenyl)pyrimidin-5-yl)oxy)ethyl)-N-methylacrylamide], the IC50 at BTK was below 1 nM; in assay [1] (setting [2]) it was below 100 nM.

These data come from patent US12570631B2, “Substituted N-(4-(pyrimidin and pyridin-4-yl)benzylcarboxamides and its use for treating disorders responsive to inhibition of Btk” (BIOGEN MA INC., priority 2019, dated 2026).
